From ChEMBL document CHEMBL4619770, “Comatulins A-E, Taurine-Conjugated Anthraquinones from the Australian Crinoid Comatula rotalaria” (J Nat Prod, 2020)
Active and inactive are the calls of the source. The rule behind the calls is not given here.

Tests used:
[1] = test system: Human immunodeficiency virus 1; experiment: Antiviral activity against HIV-1 assessed as reduction in viral replication; assay type: functional, organism-based
Haemonchus contortus [2] = experiment: Anti-helmintic activity against fourth stage L4 Haemonchus contortus larvae assessed as induction of changes in internal structure measured on day 7 by light microscopic method; assay type: functional, organism-based
Haemonchus contortus [3] = experiment: Anti-helmintic activity against third-stage Haemonchus contortus larvae assessed as reduction in development of xL3 stage larvae to L4 stage after 7 days; assay type: functional, organism-based; settings: 168 h
Haemonchus contortus [4] = experiment: Anti-helmintic activity against third-stage Haemonchus contortus larvae assessed as induction of eviscerated phenotype at 100 uM measured on day 7 by light microscopic analysis relative to control; assay type: functional
Haemonchus contortus [5] = experiment: Anti-helmintic activity against third-stage Haemonchus contortus larvae assessed as reduction in development of xL3 stage larvae to L4 stage at low concentration after 7 days; assay type: functional, organism-based
Haemonchus contortus [6] = experiment: Anti-helmintic activity against fourth stage L4 Haemonchus contortus larvae assessed as induction of eviscerated phenotype measured on day 7 by light microscopic method; assay type: functional, organism-based
Haemonchus contortus [7] = experiment: Anti-helmintic activity against third-stage Haemonchus contortus larvae assessed as reduction in development of xL3 stage larvae to L4 stage at 100 uM after 7 days; assay type: functional, organism-based
Haemonchus contortus [8] = experiment: Anti-helmintic activity against third-stage Haemonchus contortus larvae assessed as reduction in larval motility after 72 hrs; assay type: functional, organism-based
[9] = test system: Human immunodeficiency virus 1; experiment: Antiviral activity against HIV-1 assessed as reduction in viral replication at 0.1 uM; assay type: functional; design: scale not given: the % may be the effect or the level left
[10] = test system: Human immunodeficiency virus 1; experiment: Antiviral activity against HIV-1 NL4.3 infected in CEM-GXR T cells assessed as reduction in viral replication after 72 hrs by flow cytometry; assay type: functional, organism-based; settings: Human immunodeficiency virus 1, NL4.3, CEM-GXR

SMILES | EC50 [1] [µM] | other results
CCCC(=O)c1c(O)cc(O)c2c1C(=O)c1cc(OC)c(OC)c(O)c1C2=O | > 100 | –
CCCc1cc(=O)c2c(O)c(OC)c3cc(O)cc(OC)c3c2o1 | > 100 | –
CCCC(=O)c1c(O)c(CNCCS(=O)(=O)O)c(O)c2c1C(=O)c1cc(OC)cc(O)c1C2=O | > 100 | –
CC(C)(C)NC(=O)[C@@H]1CN(Cc2cccnc2)CCN1C[C@@H](O)C[C@@H](Cc1ccccc1)C(=O)N[C@H]1c2ccccc2C[C@H]1O.O [INDINAVIR] | – | Activity [9]: 72%
CCCC(=O)c1c(O)cc(O)c2c1C(=O)c1cc(O)cc(O)c1C2=O | > 100 | Activity (Haemonchus contortus [7]): Active
CCCC(=O)c1c(O)cc(O)c2c1C(=O)c1cc(OC)cc(OC)c1C2=O | > 100 | –

Continued, in another order:

EC50 [1] [µM] | SMILES | other results
> 100 | COc1cc(OC)c2c(c1)C(=O)c1c(C(C)=O)c(O)cc(O)c1C2=O | –
> 100 | CCCc1cc(=O)c2c(OC)c(OC)c3cc(OC)cc(OC)c3c2o1 | Activity (Haemonchus contortus [2]): Active; IC50 (Haemonchus contortus [3]): 31 µM; Activity (Haemonchus contortus [4]): 51%; Activity (Haemonchus contortus [5]): inactive; Activity (Haemonchus contortus [6]): inactive; Activity (Haemonchus contortus [7]): Active; IC50 (Haemonchus contortus [8]): 30 µM
> 100 | CCCC(=O)c1c(O)cc(O)c2c1C(=O)c1cc(OC)cc(O)c1C2=O | –
> 100 | CC(=O)c1c(O)cc(O)c2c1C(=O)c1cc(O)cc(O)c1C2=O | –
> 100 | COc1cc(O)c2c(c1)C(=O)c1c(C(C)=O)c(O)cc(O)c1C2=O | –
> 100 | O=C1c2cc(O)cc(O)c2C(=O)c2c(O)cc(O)cc21 | –
> 100 | COc1cc(O)c2c(c1)C(=O)c1c(C(C)=O)c(O)c(CNCCS(=O)(=O)O)c(O)c1C2=O | –
5.7 | CCCc1cc(=O)c2c(O)cc3cc(O)cc(OC)c3c2o1 [COMAPARVIN] | EC50 [10]: 7.5 µM
